Patent US6908942B2, “6-amino-2,2-dimethyl-3,4,6-trisubstituted benzopyran derivatives and their construction by parallel synthesis on solid-phase” (Korea Research Institute of Chemical Technology, priority 2002, dated 2005)

Test system: lipid peroxidation induced by iron
Experiment: Inhibitory effect on iron-induced lipid peroxidation in rat brain homogenate (MDA measurement, N-methyl-2-phenylindole, Bioxytech LPO-586 Kit)
Format: biochemical
Settings: FeCl2 400 μM, 30 min at 37° C., decrease of MDA vs DMSO control, absorption at 586 nm
Experimental: The inhibitory effect of the present compounds on lipid peroxidation induced by iron was evaluated as follows:
Rat brain was homogenized in Krebs buffer (15 mM HEPES, 10 mM glucose, 140 mM NaCl, 3.6 mM KCl, 1.5 mM CaCl2, 1.4 mM KH2PO4 and 0.7 mM MgCl, pH 7.4) and centrifuged at 12,000 rpm to obtain the supernatant serving as a raw material of lipid. To the brain homogenates, FeCl^2 was added to give a final concentration of 400 μM and allowed to stand for 30 min at 37° C. for promoting oxidation. Each of the compounds to be tested was added to give a concentration of 12.5 μM and a control group was solely added with dimethylsulfoxide (DMSO).
When iron is added to brain homogenates, oxidation is promoted to increase the amount of malondialdehyde (MDA) as lipid peroxidation product. Therefore, in this Example, the level of lipid peroxidation was evaluated according to MDA measurement method. In general MDA measurement, the test sample is reacted with TBA (2-thiobarbituric acid) and the absorbance at 530 nm was measured. However, since such process includes a boiling step, it is unsuitable for dealing with test samples in large quantity. Therefore, in this Example, N-methyl-2-phenylindole was used as a color developing reagent in place of TBA so as to avoid boiling step. […] The inhibitory effect on lipid peroxidation of test compounds was evaluated by calculating the decreased level of MDA in percentage based on the amount of MDA in the control group. For the test compounds showing more than 80% inhibitory effect, the concentration-lipid peroxidation inhibition curves were plotted with reference to the decrease rate of MDA amount based on the amount of MDA in the control group and their IC50 values was calculated through least linear regression analysis.
In addition, the representative antioxidants commercialized such as Promethazine, Trolox, Probucol and N-propyl gallate were examined in terms of 50% inhibition concentration (IC50) according to the above procedure and the results are shown in Table 4.

| SMILES | IC50 |
| --- | --- |
| CCCCOC1c2cc(NC)ccc2OC(C)(C)C1OCc1ccccc1 (stereo not shown) [Compound 5-49] | 2850 nM |
| CCCCOC1c2cc(NC)ccc2OC(C)(C)C1OCc1ccc(F)cc1 (stereo not shown) [Compound 5-50] | 4900 nM |
| CCCCOC1c2cc(NC)ccc2OC(C)(C)C1OCc1ccc(C(C)(C)C)cc1 (stereo not shown) [Compound 5-51] | 5200 nM |
| CCCCOC1c2cc(NC)ccc2OC(C)(C)C1OCc1cccc(F)c1 (stereo not shown) [Compound 5-52] | 980 nM |
| CCCCOC1c2cc(NC)ccc2OC(C)(C)C1OCc1ccccc1C (stereo not shown) [Compound 5-53] | 1800 nM |
| CCCCOC1c2cc(NC)ccc2OC(C)(C)C1OCc1cccc(Cl)c1 (stereo not shown) [Compound 5-55] | 2610 nM |
| CCCCOC1c2cc(NC)ccc2OC(C)(C)C1OCc1ccc(Br)cc1F (stereo not shown) [Compound 5-57] | 4370 nM |
| C=CCOC1C(OCCCC)c2cc(NC)ccc2OC1(C)C (stereo not shown) [Compound 5-63] | 2460 nM |
| C#CCOC1C(OCCCC)c2cc(NC)ccc2OC1(C)C (stereo not shown) [Compound 5-64] | 2570 nM |
| CNc1ccc2c(c1)C(OCc1ccccc1)C(OCc1ccccc1)C(C)(C)O2 (stereo not shown) [Compound 5-65] | 1130 nM |
| CNc1ccc2c(c1)C(OCc1ccccc1)C(OCc1ccc(C(C)(C)C)cc1)C(C)(C)O2 (stereo not shown) [Compound 5-67] | 6060 nM |
| CCOC1c2cc(NC)ccc2OC(C)(C)C1OCc1cccc(F)c1 (stereo not shown) [Compound 5-68] | 1390 nM |
| CNc1ccc2c(c1)C(OCc1ccccc1)C(OCc1ccccc1C)C(C)(C)O2 (stereo not shown) [Compound 5-69] | 1420 nM |
| CNc1ccc2c(c1)C(OCc1ccccc1)C(OCc1ccccc1Cl)C(C)(C)O2 (stereo not shown) [Compound 5-70] | 1150 nM |
| CNc1ccc2c(c1)C(OCc1ccccc1)C(OCc1cccc(Cl)c1)C(C)(C)O2 (stereo not shown) [Compound 5-71] | 1700 nM |
| CNc1ccc2c(c1)C(OCc1ccccc1)C(OCc1ccc(C)cc1)C(C)(C)O2 (stereo not shown) [Compound 5-72] | 7390 nM |
| CNc1ccc2c(c1)C(OCc1ccccc1)C(OCc1ccc(Br)cc1F)C(C)(C)O2 (stereo not shown) [Compound 5-73] | 2850 nM |
| CNc1ccc2c(c1)C(OCc1ccccc1)C(OCc1ccc3ccccc3c1)C(C)(C)O2 (stereo not shown) [Compound 5-74] | 3600 nM |
| CCCCCOC1C(OCc2ccccc2)c2cc(NC)ccc2OC1(C)C (stereo not shown) [Compound 5-77] | 2500 nM |
| C/C=C/COC1C(OCc2ccccc2)c2cc(NC)ccc2OC1(C)C (stereo not shown) [Compound 5-78] | 1140 nM |
| C=CCOC1C(OCc2ccccc2)c2cc(NC)ccc2OC1(C)C (stereo not shown) [Compound 5-79] | 790 nM |
| C#CCOC1C(OCc2ccccc2)c2cc(NC)ccc2OC1(C)C (stereo not shown) [Compound 5-80] | 1080 nM |

Second part, the compound after the results:

| IC50 | SMILES |
| --- | --- |
| 5340 nM | CNc1ccc2c(c1)C(OCCC1CCCCC1)C(OCc1ccccc1)C(C)(C)O2 (stereo not shown) [Compound 5-97] |
| 5300 nM | CNc1ccc2c(c1)C(OCCC1CCCCC1)C(OCc1ccc(F)cc1)C(C)(C)O2 (stereo not shown) [Compound 5-98] |
| 3890 nM | CNc1ccc2c(c1)C(OCCC1CCCCC1)C(OCc1cccc(F)c1)C(C)(C)O2 (stereo not shown) [Compound 5-100] |
| 6030 nM | CNc1ccc2c(c1)C(OCCC1CCCCC1)C(OCc1ccccc1C)C(C)(C)O2 (stereo not shown) [Compound 5-101] |
| 5100 nM | CNc1ccc2c(c1)C(OCCC1CCCCC1)C(OCc1cccc(Cl)c1)C(C)(C)O2 (stereo not shown) [Compound 5-103] |
| 4010 nM | CNc1ccc2c(c1)C(OCCC1CCCCC1)C(OCc1ccc(C)cc1)C(C)(C)O2 (stereo not shown) [Compound 5-104] |
| 5510 nM | CNc1ccc2c(c1)C(OCCC1CCCCC1)C(OCc1ccc3ccccc3c1)C(C)(C)O2 (stereo not shown) [Compound 5-106] |
| 1320 nM | CC1(C)Oc2ccc(NCc3ccccc3)cc2C(OCc2ccccc2)C1OCc1ccccc1 (stereo not shown) [Compound 5-289] |
| 3020 nM | CC1(C)Oc2ccc(NCc3ccccc3)cc2C(OCc2ccccc2)C1OCc1ccc(F)cc1 (stereo not shown) [Compound 5-290] |
| 3250 nM | CC1(C)Oc2ccc(NCc3ccccc3)cc2C(OCc2ccccc2)C1OCc1cccc(F)c1 (stereo not shown) [Compound 5-292] |
| 3680 nM | Cc1ccccc1COC1C(OCc2ccccc2)c2cc(NCc3ccccc3)ccc2OC1(C)C (stereo not shown) [Compound 5-293] |
| 1290 nM | CC1(C)Oc2ccc(NCc3ccccc3)cc2C(OCc2ccccc2)C1OCc1cccc(Cl)c1 (stereo not shown) [Compound 5-295] |
